Measurements reported in US7745402B2, “Method of treating pancreatitis” (Lundbeck Inc., priority 2005, dated 2010).

System: HO-1
Test: HO-1 immunoblot of mouse tissue/cell homogenates after hemin
Format: in vivo, mice
Details: for HO-1 induction: hemin 3× during 7 d
Method: (A, B) Total tissue homogenates were obtained from pancreata of caerulein-injected or choline deficient diet (CDD)-fed mice. Two age and sex-matched mice were used for each time point. Homogenates were tested by blotting using antibodies to HO-1 or HO-2. (C) Mice (3 mice/condition) were given hemin by intraperitoneal injection (4× during one week, or 8× during two weeks). Two “control” mice were injected with vehicle alone. Pancreatic homogenates were then obtained and blotted with anti-HO-1/2. (D-F) Mice were injected with saline, hemin, or vehicle (8 mice/group)3×(arrows) followed by feeding with CDD for 3 d then harvesting of the pancreata. HO-1 and HO-2 were analyzed by blotting of pancreatic homogenates (3 mice/group). […] A representative hematoxylin and eosin staining of pancreata from mice that survived CDD feeding is shown (scale bar=50 μM).
FIG. 8: HO-1 expression and hemin-mediated induction in mouse tissues and cells. Mice were injected 3× during 7d with vehicle or hemin (2 mice/group) followed by harvesting of the indicated organs and cells then preparation of total tissue/cell homogenates. Protein concentrations of the homogenates were measured followed by SDS-PAGE separation (40 μg of protein/lane) then blotting using anti-HO-1 antibodies.
Hemin, vehicle and antibodies. […]
Animal procedures. […] Immunofluorescence staining was performed as described (29) and images were analyzed using confocal microscopy. Total tissue lysates were prepared by homogenization in Laemmli sample buffer and analyzed by SDS-PAGE followed by transfer to membranes for blotting and protein visualization by enhanced chemiluminescence. Trypsin activity was determined using a fluorimetric assay and the substrate Boc-Gln-Ala-Arg-MCA (Peptides International Inc.; Louisville, Ky.), and comparison to a standard curve generated with purified trypsin as described. […] Lung injury after caerulein administration was assessed as previously described, based on neutrophilic infiltration, pulmonary edema, alveolar distension and collapse. […]

In the case of Hemin, the HO-1 induction (bone marrow, spleen, brain) is reported as “not in bone marrow, spleen or brain”, the “level of HO-1 induction on excessive dosing” value (pancreas, 8× during two weeks vs 4× during one week (FIG. 1C)) is reported as “excessive dosing decreases the level of HO-1 induction” and the HO-1 induction (peritoneal cells, liver, pancreas and colon) is reported as “induction of HO-1 in peritoneal cells, liver, pancreas and colon (most prominent change being in pancreas)”.
